Assays:
Assay in all cases: drug sensitivity score (DSS) from 5-point dose-response viability curve (DSS (area-under-curve based score)); higher = more sensitive (stronger growth inhibition or killing); extreme values may be limits of the assay
Conditions in all cases: exposure time: 72 h; concentration range: 5 concentrations over 10,000-fold range
[1] = test system: CAOV3
Summary of the method: (§1)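 Drug sensitivity scores were calculated in Breeze software for each cell line and drug pair; higher scores indicate more sensitivity. A score of zero indicates no response. The underlying assay used 384-well plates: drugs were placed by an Echo 550 acoustic dispenser at five concentrations spanning a 10,000-fold range, 1,500 ovarian cancer or normal ovarian cells were added per well, and cells were kept 3 days at 37°C, 5% CO2. Viability was then measured with CellTiter-Glo luminescence on a PHERAstar FS.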

[2] = test system: COV318
Summary of the method: as §1

[3] = test system: COV362
Summary of the method: as §1

[4] = test system: HOSE1C
Summary of the method: as §1

[5] = test system: HOSE2C
Summary of the method: as §1

[6] = test system: JHOS2
Summary of the method: as §1

[7] = test system: Kuramochi
Summary of the method: as §1

[8] = test system: OV90
Summary of the method: as §1

[9] = test system: OVCAR4
Summary of the method: as §1

[10] = test system: OVCAR5
Summary of the method: as §1

[11] = test system: OVCAR8
Summary of the method: as §1

[12] = test system: Ovsaho
Summary of the method: as §1

CNC(=O)c1cccc2cc(Oc3ccnc4cc(OCC5(N)CC5)c(OC)cc34)ccc12 [Lucitanib] showed a drug sensitivity score [1] of 0, a drug sensitivity score [2] of 2.3 and a drug sensitivity score [3] of 0. The drug sensitivity score [4] was 1.5, the drug sensitivity score [5] was 5.9 and the drug sensitivity score [6] was 0.4. The drug sensitivity score [7] was 0.1, the drug sensitivity score [8] was 1.1 and the drug sensitivity score [9] was 2.4. For the same molecule, the drug sensitivity score [10] was 1.6, the drug sensitivity score [11] was 2.3 and the drug sensitivity score [12] was 0.8.

In the case of O=C(CCCCCCC(=O)Nc1ccccc1)NO [Vorinostat], the drug sensitivity score [1] is reported as 8.6, the drug sensitivity score [2] is reported as 4.3 and the drug sensitivity score [3] is reported as 3.2. For the same molecule, the drug sensitivity score [4] was 15.9, the drug sensitivity score [5] was 10.7 and the drug sensitivity score [6] was 5.3. It also gave a drug sensitivity score [7] of 4.7, a drug sensitivity score [8] of 8 and a drug sensitivity score [9] of 4.7. The drug sensitivity score [10] was 10.8, the drug sensitivity score [11] was 9.7 and the drug sensitivity score [12] was 2.7.

Work on CNC(=O)c1ccc(N2C(=S)N(c3ccc(C#N)c(C(F)(F)F)c3)C(=O)C2(C)C)cc1F [Enzalutamide] yielded a drug sensitivity score [1] of 0, a drug sensitivity score [2] of 0.4 and a drug sensitivity score [3] of 0. It also gave a drug sensitivity score [4] of 0, a drug sensitivity score [5] of 0 and a drug sensitivity score [6] of 0. For the same molecule, the drug sensitivity score [7] was 1.7, the drug sensitivity score [8] was 0 and the drug sensitivity score [9] was 0.1. The drug sensitivity score [10] was 0.2, the drug sensitivity score [11] was 0 and the drug sensitivity score [12] was 2.3.

CCc1c2c(nc3ccc(O)cc13)-c1cc3c(c(=O)n1C2)COC(=O)[C@]3(O)CC [SN-38] showed a drug sensitivity score [1] of 37.9, a drug sensitivity score [2] of 13.8 and a drug sensitivity score [3] of 16.8. For the same molecule, the drug sensitivity score [4] was 37.3, the drug sensitivity score [5] was 36.4 and the drug sensitivity score [6] was 25.2. The drug sensitivity score [7] was 14.6, the drug sensitivity score [8] was 24.6 and the drug sensitivity score [9] was 14.4. It also gave a drug sensitivity score [10] of 24, a drug sensitivity score [11] of 28.6 and a drug sensitivity score [12] of 21.2.

In the case of Nc1ccccc1NC(=O)c1ccc(CNC(=O)OCc2cccnc2)cc1 [Entinostat], the drug sensitivity score [1] is reported as 5.5, the drug sensitivity score [2] is reported as 4.3 and the drug sensitivity score [3] is reported as 0. The drug sensitivity score [4] was 17.3, the drug sensitivity score [5] was 11.8 and the drug sensitivity score [6] was 4.7. It also gave a drug sensitivity score [7] of 3.2, a drug sensitivity score [8] of 7.4 and a drug sensitivity score [9] of 4.3. For the same molecule, the drug sensitivity score [10] was 9.9, the drug sensitivity score [11] was 9.3 and the drug sensitivity score [12] was 2.4.

Molecule O=C(c1ccc(OCCN2CCCCC2)cc1)c1c(-c2ccc(O)cc2)sc2cc(O)ccc12 [Raloxifene] has a drug sensitivity score [1] of 0.5, a drug sensitivity score [2] of 1.8 and a drug sensitivity score [3] of 1.2. For the same molecule, the drug sensitivity score [4] was 0, the drug sensitivity score [5] was 0 and the drug sensitivity score [6] was 1. For the same molecule, the drug sensitivity score [7] was 2.6, the drug sensitivity score [8] was 1.9 and the drug sensitivity score [9] was 0.3. It also gave a drug sensitivity score [10] of 2, a drug sensitivity score [11] of 1.5 and a drug sensitivity score [12] of 3.3.

With CCCOc1ccn2c(C(C)=O)cc(-c3ccccc3S(C)(=O)=O)c2c1 [GSK2801] the drug sensitivity score [1] was 0, the drug sensitivity score [2] was 0 and the drug sensitivity score [3] was 0. It also gave a drug sensitivity score [4] of 0, a drug sensitivity score [5] of 0 and a drug sensitivity score [6] of 0. The drug sensitivity score [7] was 0.4, the drug sensitivity score [8] was 0 and the drug sensitivity score [9] was 0. The drug sensitivity score [10] was 0, the drug sensitivity score [11] was 0 and the drug sensitivity score [12] was 0.

CCn1cc(-c2ccnc3[nH]c(-c4cccc(CN(C)C)c4)cc23)c(-c2ccc(NC(=O)N(C)C)cc2)n1 showed a drug sensitivity score [1] of 17, a drug sensitivity score [2] of 0.2 and a drug sensitivity score [3] of 0.2. For the same molecule, the drug sensitivity score [4] was 1.3, the drug sensitivity score [5] was 1.4 and the drug sensitivity score [6] was 0. For the same molecule, the drug sensitivity score [7] was 0.4, the drug sensitivity score [8] was 0.3 and the drug sensitivity score [9] was 2.9. It also gave a drug sensitivity score [10] of 2, a drug sensitivity score [11] of 1.9 and a drug sensitivity score [12] of 1.2.

CNC(=O)c1ccc(N2C(=S)N(c3cnc(C#N)c(C(F)(F)F)c3)C(=O)C23CCC3)cc1F [Apalutamide] was tested, and the drug sensitivity score [1] was 0, the drug sensitivity score [2] was 0 and the drug sensitivity score [3] was 0. For the same molecule, the drug sensitivity score [4] was 0, the drug sensitivity score [5] was 0 and the drug sensitivity score [6] was 0. For the same molecule, the drug sensitivity score [7] was 0, the drug sensitivity score [8] was 0 and the drug sensitivity score [9] was 0. For the same molecule, the drug sensitivity score [10] was 0, the drug sensitivity score [11] was 0 and the drug sensitivity score [12] was 0.

Molecule CN1CC[C@@H](NC(=O)Nc2ccc(C#N)cc2)C[C@@H]1c1nc2ccccc2[nH]1 [Glasdegib] has a drug sensitivity score [1] of 0, a drug sensitivity score [2] of 0 and a drug sensitivity score [3] of 0. The drug sensitivity score [4] was 0, the drug sensitivity score [5] was 0 and the drug sensitivity score [6] was 0. It also gave a drug sensitivity score [7] of 0, a drug sensitivity score [8] of 0 and a drug sensitivity score [9] of 0. It also gave a drug sensitivity score [10] of 0, a drug sensitivity score [11] of 0 and a drug sensitivity score [12] of 0.

Cc1cc(OCc2nnc(SC3CCCC3)n2-c2cccnc2)ccc1-c1ccc(S(C)(=O)=O)cc1 [NMS-873] gave a drug sensitivity score [1] of 8.6, a drug sensitivity score [2] of 8.7 and a drug sensitivity score [3] of 4.4. The drug sensitivity score [4] was 9.3, the drug sensitivity score [5] was 8.1 and the drug sensitivity score [6] was 6.7. The drug sensitivity score [7] was 6.8, the drug sensitivity score [8] was 12.4 and the drug sensitivity score [9] was 7.9. For the same molecule, the drug sensitivity score [10] was 8.9, the drug sensitivity score [11] was 19.9 and the drug sensitivity score [12] was 6.9.

CC(C)C[C@H](NC(=O)[C@H](Cc1ccccc1)NC(=O)c1cnccn1)B(O)O [Bortezomib] was tested, and the drug sensitivity score [1] was 26.4, the drug sensitivity score [2] was 28.3 and the drug sensitivity score [3] was 24.7. For the same molecule, the drug sensitivity score [4] was 27.4, the drug sensitivity score [5] was 24.4 and the drug sensitivity score [6] was 24.5. It also gave a drug sensitivity score [7] of 9.3, a drug sensitivity score [8] of 22.8 and a drug sensitivity score [9] of 24.6. The drug sensitivity score [10] was 23.9, the drug sensitivity score [11] was 23 and the drug sensitivity score [12] was 17.8.

Cc1ccc(Nc2nccc(N(C)c3ccc4c(C)n(C)nc4c3)n2)cc1S(N)(=O)=O [Pazopanib] gave a drug sensitivity score [1] of 0, a drug sensitivity score [2] of 0.1 and a drug sensitivity score [3] of 0. It also gave a drug sensitivity score [4] of 0, a drug sensitivity score [5] of 0 and a drug sensitivity score [6] of 0. For the same molecule, the drug sensitivity score [7] was 0, the drug sensitivity score [8] was 0 and the drug sensitivity score [9] was 0. It also gave a drug sensitivity score [10] of 0, a drug sensitivity score [11] of 0 and a drug sensitivity score [12] of 0.

Work on c1cc(CN2CCCNCCNCCCNCC2)ccc1CN1CCCNCCNCCCNCC1 [Plerixafor] yielded a drug sensitivity score [1] of 0, a drug sensitivity score [2] of 0 and a drug sensitivity score [3] of 0. It also gave a drug sensitivity score [4] of 0, a drug sensitivity score [5] of 0 and a drug sensitivity score [6] of 0. The drug sensitivity score [7] was 0, the drug sensitivity score [8] was 0 and the drug sensitivity score [9] was 0. It also gave a drug sensitivity score [10] of 0, a drug sensitivity score [11] of 0 and a drug sensitivity score [12] of 0.

In the case of COc1cc(NS(C)(=O)=O)ccc1Nc1c2ccccc2nc2ccccc12 [Amsacrine], the drug sensitivity score [1] is reported as 13.7, the drug sensitivity score [2] is reported as 0.6 and the drug sensitivity score [3] is reported as 1. The drug sensitivity score [4] was 13.7, the drug sensitivity score [5] was 16.7 and the drug sensitivity score [6] was 3.8. For the same molecule, the drug sensitivity score [7] was 0, the drug sensitivity score [8] was 7.3 and the drug sensitivity score [9] was 0.2. It also gave a drug sensitivity score [10] of 6, a drug sensitivity score [11] of 10 and a drug sensitivity score [12] of 5.5.

Source: the supplement of paper PMC11616607
